Reference: ChEMBL document CHEMBL1909046, “DrugMatrix in vitro pharmacology data”

Assays:
[1] = molecular target: 5-hydroxytryptamine receptor 2B (Homo sapiens, UniProt P41595); assay type: cell membranes, CHO-K1, Membrane; conditions: for Ki: read-out: Ki; for all read-outs here: in other assays of this panel Not Active means under 50% inhibition at 10 µM
[2] = DRUGMATRIX: GABAA, Chloride Channel, TBOB radioligand binding (ligand: [3H] TBOB); assay type: cell membranes, Rattus norvegicus, Wistar, Cerebral cortex, Membrane; conditions: Not Active = under 50% inhibition at 10 µM
[3] = molecular target: T1, C-C chemokine receptor type 4 (Homo sapiens, UniProt P51679); assay type: cell membranes, Chem-1, Membrane; note: in other assays of this panel Not Active means under 50% inhibition at 10 µM
T1 sequence (P51679 whole entry): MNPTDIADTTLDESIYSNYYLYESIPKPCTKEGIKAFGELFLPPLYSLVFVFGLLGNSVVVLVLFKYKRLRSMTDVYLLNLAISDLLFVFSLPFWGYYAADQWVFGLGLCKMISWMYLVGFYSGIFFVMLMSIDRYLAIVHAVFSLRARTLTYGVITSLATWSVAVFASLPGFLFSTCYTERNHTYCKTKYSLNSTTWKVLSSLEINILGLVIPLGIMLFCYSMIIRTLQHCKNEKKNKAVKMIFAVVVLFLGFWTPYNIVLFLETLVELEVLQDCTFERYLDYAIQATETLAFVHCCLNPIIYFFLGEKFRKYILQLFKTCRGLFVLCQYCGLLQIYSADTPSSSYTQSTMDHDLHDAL

Adenosine receptor A3 = molecular target: T2, Adenosine receptor A3 (Homo sapiens, UniProt P0DMS8); assay type: cell membranes, CHO-K1, Membrane; conditions: for Ki: read-out: Ki;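 for all read-outs here: radioligand binding assay with AB-MECA serving as the labeled ligand; in other assays of this panel Not Active means under 50% inhibition at 10 µM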
T2 sequence (P0DMS8 whole entry): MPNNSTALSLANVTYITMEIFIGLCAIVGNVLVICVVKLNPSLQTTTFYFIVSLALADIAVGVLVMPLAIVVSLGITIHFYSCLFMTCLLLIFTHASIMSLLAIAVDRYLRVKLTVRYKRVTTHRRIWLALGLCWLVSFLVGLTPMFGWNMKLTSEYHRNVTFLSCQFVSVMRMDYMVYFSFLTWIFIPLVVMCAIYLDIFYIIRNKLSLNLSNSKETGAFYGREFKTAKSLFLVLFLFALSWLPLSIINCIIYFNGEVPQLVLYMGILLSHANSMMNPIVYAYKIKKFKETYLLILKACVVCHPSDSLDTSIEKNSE

[4] = DRUGMATRIX: Potassium Channel [KATP] radioligand binding (ligand: [3H] Glyburide); assay type: cell membranes, Membrane; conditions: hit-t15; Not Active = under 50% inhibition at 10 µM
[5] = molecular target: Vascular endothelial growth factor receptor 1 (Homo sapiens, UniProt P17948); assay type: cell-based; conditions: huvec; note: in other assays of this panel Not Active means under 50% inhibition at 10 µM
Chain of Vascular endothelial growth factor receptor 1 (P17948 whole entry): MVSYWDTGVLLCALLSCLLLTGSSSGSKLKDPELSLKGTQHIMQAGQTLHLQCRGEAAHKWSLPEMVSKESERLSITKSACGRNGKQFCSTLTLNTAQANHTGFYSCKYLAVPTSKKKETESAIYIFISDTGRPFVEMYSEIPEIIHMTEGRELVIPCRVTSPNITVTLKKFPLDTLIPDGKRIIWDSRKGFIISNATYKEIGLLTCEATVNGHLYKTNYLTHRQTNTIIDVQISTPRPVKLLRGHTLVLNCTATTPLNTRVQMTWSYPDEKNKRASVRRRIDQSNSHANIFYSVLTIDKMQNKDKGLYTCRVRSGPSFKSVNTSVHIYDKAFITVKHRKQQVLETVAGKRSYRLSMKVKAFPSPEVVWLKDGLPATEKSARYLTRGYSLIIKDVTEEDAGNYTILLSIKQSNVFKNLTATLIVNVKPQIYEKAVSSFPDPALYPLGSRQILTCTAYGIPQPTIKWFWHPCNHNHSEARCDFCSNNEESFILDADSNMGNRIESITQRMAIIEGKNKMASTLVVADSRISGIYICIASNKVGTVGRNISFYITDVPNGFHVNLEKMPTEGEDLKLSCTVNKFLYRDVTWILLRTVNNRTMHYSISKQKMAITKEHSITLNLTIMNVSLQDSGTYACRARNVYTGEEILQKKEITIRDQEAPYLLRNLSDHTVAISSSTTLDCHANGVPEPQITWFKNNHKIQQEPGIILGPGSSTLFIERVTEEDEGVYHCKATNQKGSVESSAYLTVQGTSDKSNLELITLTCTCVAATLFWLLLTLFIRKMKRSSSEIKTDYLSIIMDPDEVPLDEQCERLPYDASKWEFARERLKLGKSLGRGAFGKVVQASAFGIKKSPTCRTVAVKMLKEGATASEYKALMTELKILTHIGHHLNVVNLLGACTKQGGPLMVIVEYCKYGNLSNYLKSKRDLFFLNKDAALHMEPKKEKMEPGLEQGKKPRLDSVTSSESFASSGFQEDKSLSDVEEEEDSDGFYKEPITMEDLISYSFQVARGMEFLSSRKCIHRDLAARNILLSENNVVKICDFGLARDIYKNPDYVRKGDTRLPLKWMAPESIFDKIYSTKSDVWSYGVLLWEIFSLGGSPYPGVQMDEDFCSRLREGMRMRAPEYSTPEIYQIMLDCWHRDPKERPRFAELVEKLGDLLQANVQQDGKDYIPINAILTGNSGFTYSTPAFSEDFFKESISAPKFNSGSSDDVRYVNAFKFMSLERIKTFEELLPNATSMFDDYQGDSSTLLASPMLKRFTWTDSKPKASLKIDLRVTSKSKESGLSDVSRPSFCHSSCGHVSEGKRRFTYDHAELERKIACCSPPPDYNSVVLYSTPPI

Chain of 5-hydroxytryptamine receptor 2B (P41595 whole entry): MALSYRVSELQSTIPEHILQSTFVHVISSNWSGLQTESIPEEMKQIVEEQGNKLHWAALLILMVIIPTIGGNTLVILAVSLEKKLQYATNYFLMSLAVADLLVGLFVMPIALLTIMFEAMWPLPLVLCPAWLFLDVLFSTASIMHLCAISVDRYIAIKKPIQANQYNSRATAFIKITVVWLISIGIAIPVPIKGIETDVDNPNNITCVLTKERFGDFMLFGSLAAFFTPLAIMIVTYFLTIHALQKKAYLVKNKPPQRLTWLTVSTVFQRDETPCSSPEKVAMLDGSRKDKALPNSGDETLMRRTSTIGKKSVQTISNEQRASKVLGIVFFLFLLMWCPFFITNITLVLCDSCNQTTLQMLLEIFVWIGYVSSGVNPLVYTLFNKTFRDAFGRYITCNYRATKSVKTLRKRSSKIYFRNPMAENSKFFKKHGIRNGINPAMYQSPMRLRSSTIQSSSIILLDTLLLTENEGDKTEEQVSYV

| SMILES | IC50 ([1]; cho-k1) | IC50 [2] | Ki [2] | IC50 ([3]; chem-1) | IC50 (Adenosine receptor A3; cho-k1) | IC50 [4] | Ki [4] | IC50 [5] | IC50 ([3]; read-out: IC50) [µM] | Ki ([3]; read-out: Ki) [µM] | IC50 ([1]; read-out: IC50) [µM] | Ki [1] [µM] | IC50 (Adenosine receptor A3; read-out: IC50) [µM] | Ki (Adenosine receptor A3) [µM] |
| --- | --- | --- | --- | --- | --- | --- | --- | --- | --- | --- | --- | --- | --- | --- |
| CC(C)(C)NC(=O)[C@@H]1C[C@@H]2CCCC[C@@H]2CN1C[C@@H](O)[C@H](Cc1ccccc1)NC(=O)[C@H](CC(N)=O)NC(=O)c1ccc2ccccc2n1 | Not Active | Not Active | Not Active | Not Active | Not Active | Not Active | Not Active | Not Active | – | – | – | – | – | – |
| CC(=O)[C@@]1(O)CC[C@H]2[C@@H]3C[C@H](C)C4=CC(=O)CC[C@]4(C)[C@H]3CC[C@@]21C | Not Active | Not Active | Not Active | Not Active | Not Active | Not Active | Not Active | Not Active | – | – | – | – | – | – |
| N[C@@H](Cc1ccc(N(CCCl)CCCl)cc1)C(=O)O | Not Active | Not Active | Not Active | Not Active | Not Active | Not Active | Not Active | Not Active | – | – | – | – | – | – |
| CCCCc1oc2ccccc2c1C(=O)c1cc(I)c(OCCN(CC)CC)c(I)c1 [AMIODARONE] | – | – | – | – | – | – | – | Not Active | 21.8 | 11.4 | – | – | – | – |
| OCCN(CCO)c1nc(N2CCCCC2)c2nc(N(CCO)CCO)nc(N3CCCCC3)c2n1 [DIPYRIDAMOLE] | Not Active | Not Active | Not Active | Not Active | Not Active | Not Active | Not Active | Not Active | – | – | – | – | – | – |
| Cc1oncc1C(=O)Nc1ccc(C(F)(F)F)cc1 [LEFLUNOMIDE] | Not Active | Not Active | Not Active | Not Active | Not Active | Not Active | Not Active | Not Active | – | – | – | – | – | – |
| c1ccc([C@H]2CN3CCSC3=N2)cc1 [LEVAMISOLE] | Not Active | Not Active | Not Active | Not Active | Not Active | Not Active | Not Active | Not Active | – | – | – | – | – | – |
| N[C@@H](Cc1ccc(O)c(O)c1)C(=O)O [LEVODOPA] | Not Active | Not Active | Not Active | Not Active | Not Active | Not Active | Not Active | Not Active | – | – | – | – | – | – |
| N[C@@H](Cc1cc(I)c(Oc2ccc(O)c(I)c2)c(I)c1)C(=O)O [LIOTHYRONINE] | Not Active | – | – | Not Active | Not Active | – | – | Not Active | – | – | – | – | – | – |
| O=NN(CCCl)C(=O)NC1CCCCC1 [LOMUSTINE] | Not Active | Not Active | Not Active | Not Active | Not Active | Not Active | Not Active | Not Active | – | – | – | – | – | – |
| CCOC(=O)N1CCC(=C2c3ccc(Cl)cc3CCc3cccnc32)CC1 [LORATADINE] | – | Not Active | Not Active | Not Active | Not Active | Not Active | Not Active | Not Active | – | – | – | – | – | – |
| Cn1ccnc1S [METHIMAZOLE] | Not Active | Not Active | Not Active | Not Active | Not Active | Not Active | Not Active | Not Active | – | – | – | – | – | – |
| CC[C@@H](CO)NC(=O)[C@@H]1C=C2c3cccc4[nH]cc(c34)C[C@H]2N(C)C1 [METHYLERGONOVINE] | – | Not Active | Not Active | Not Active | Not Active | Not Active | Not Active | Not Active | – | – | 0.00151 | 0.000958 | – | – |
| COc1nc(C)nc(Cl)c1NC1=NCCN1 [MOXONIDINE] | Not Active | Not Active | Not Active | Not Active | Not Active | Not Active | Not Active | Not Active | – | – | – | – | – | – |
| COc1c(C)c2c(c(O)c1C/C=C(\C)CCC(=O)O)C(=O)OC2 [MYCOPHENOLIC ACID] | Not Active | Not Active | Not Active | Not Active | Not Active | Not Active | Not Active | Not Active | – | – | – | – | – | – |
| O=c1ncn2nc(Sc3ccc(F)cc3F)ccc2c1-c1c(Cl)cccc1Cl [NEFLAMAPIMOD] | Not Active | Not Active | Not Active | Not Active | – | Not Active | Not Active | Not Active | – | – | – | – | 8.55 | 4.83 |
| CN1CCN(CCCN2c3ccccc3Sc3ccc(Cl)cc32)CC1 [PROCHLORPERAZINE] | – | – | – | Not Active | Not Active | – | – | Not Active | – | – | – | – | – | – |
| CO[C@H]1/C=C/O[C@@]2(C)Oc3c(C)c(O)c4c(O)c(c(/C=N/N5CCN(C)CC5)c(O)c4c3C2=O)NC(=O)/C(C)=C\C=C\[C@H](C)[C@H](O)[C@@H](C)[C@@H](O)[C@@H](C)[C@H](OC(C)=O)[C@@H]1C [RIFAMPIN] | Not Active | Not Active | Not Active | Not Active | Not Active | Not Active | Not Active | Not Active | – | – | – | – | – | – |
| Nc1nc2ccc(OC(F)(F)F)cc2s1 [RILUZOLE] | Not Active | Not Active | Not Active | Not Active | Not Active | Not Active | Not Active | Not Active | – | – | – | – | – | – |
| Cc1nc2n(c(=O)c1CCN1CCC(c3noc4cc(F)ccc34)CC1)CCCC2 [RISPERIDONE] | – | – | – | Not Active | Not Active | – | – | Not Active | – | – | – | – | – | – |
| C=CCC1(C(C)CCC)C(=O)NC(=O)NC1=O (centres undefined) [SECOBARBITAL] | Not Active | Not Active | Not Active | Not Active | Not Active | Not Active | Not Active | Not Active | – | – | – | – | – | – |
| C[C@@H]1CN(c2c(F)c(N)c3c(=O)c(C(=O)O)cn(C4CC4)c3c2F)C[C@H](C)N1 [SPARFLOXACIN] | Not Active | Not Active | Not Active | Not Active | Not Active | Not Active | Not Active | Not Active | – | – | – | – | – | – |
| Cc1noc(NS(=O)(=O)c2ccc(N)cc2)c1C [SULFISOXAZOLE] | Not Active | Not Active | Not Active | Not Active | Not Active | Not Active | Not Active | Not Active | – | – | – | – | – | – |
| CSc1ccc(/C=C2/C(C)=C(CC(=O)O)c3cc(F)ccc32)cc1 [SULINDAC SULFIDE] | Not Active | Not Active | Not Active | Not Active | – | Not Active | Not Active | Not Active | – | – | – | – | 7.23 | 4.09 |
| Nc1c2c(nc3ccccc13)CCCC2 [TACRINE] | Not Active | Not Active | Not Active | Not Active | Not Active | Not Active | Not Active | Not Active | – | – | – | – | – | – |
| CC/C(=C(\c1ccccc1)c1ccc(OCCN(C)C)cc1)c1ccccc1 [TAMOXIFEN] | – | – | – | Not Active | – | – | – | Not Active | – | – | 2.08 | 1.33 | 3.7 | 2.09 |
| CC(C)N1CCN(c2ccc(OCC3COC(Cn4cncn4)(c4ccc(Cl)cc4Cl)O3)cc2)CC1 (centres undefined) [TERCONAZOLE] | Not Active | Not Active | Not Active | Not Active | Not Active | Not Active | Not Active | Not Active | – | – | – | – | – | – |
| Nc1nc2nc[nH]c2c(=S)[nH]1 [THIOGUANINE] | Not Active | Not Active | Not Active | Not Active | – | – | – | Not Active | – | – | – | – | 21.7 | 12.3 |
